{"source": "paper PMC6397271", "about": "(Scientific Reports, 2019)", "assay_in_all_cases": "microbe, parasite or virus in culture", "key": {"[1]": {"tested_on": "Enterococcus faecalis 3937158", "format": "cell-based", "source_text": "(§1) Three bacterial strains of MRSA (N315, 12673, 6347) and two of Enterococcus spp. (E. faecium, E. faecalis) were used. With respect to MRSA, N315 represented a reference Van-susceptible strain (GenBank GCA_00000645.1) isolated from a patient while 12673 (Van-intermediately susceptible) and 6347 (a h-VISA which appears at frequency of <10^−5 to 10^−6 is composed of two subpopulations of bacteria: one susceptible and one intermediately resistant)[38] were clinical strains obtained from patients of The Clinical University Centre of Gdańsk (UCK). […] The clinical strain isolates originated from the collection of the Department of Pharmaceutical Technology and Biochemistry, Faculty of Chemistry, Gdańsk University of Technology.\n(§2) The strains were grown in Mueller-Hinton broth (MH cation-adjusted, Becton Dickinson) or Brain Heart Infusion broth (BHI, Becton Dickinson), respectively. The cultivation was carried out in an aerobic atmosphere at 37 °C for 24 hours and, afterwards, the bacterial cultures were diluted in geometric progression with a proper broth. Next, 100 µl of each dilution was inoculated in an agar plate and incubated at 37 °C for 24 h. The next procedures included determination of Colony Forming Units (CFU)/ml and minimal inhibitory concentration (MIC) of the compounds in question. The latter procedure was carried out according to the microbroth dilution technique using 96-well plates. The MICs were evaluated by using the metabolic assay based on the resazurin dye. The assay was performed in triplicates."}, "[2]": {"tested_on": "Enterococcus faecium 3934825", "format": "cell-based", "settings": "for MIC: raw MIC", "source_text": "as §1, §2"}, "S. aureus MRSA 12673": {"tested_on": "S. aureus MRSA 12673", "format": "cell-based, Staphylococcus aureus", "settings": "for MIC: raw MIC", "source_text": "as §1, §2"}, "[3]": {"tested_on": "S. aureus MRSA hetero-VISA 6347", "format": "cell-based, Staphylococcus aureus", "settings": "for MIC: raw MIC", "source_text": "as §1, §2"}, "S. aureus MRSA N315": {"tested_on": "S. aureus MRSA N315", "format": "cell-based, Staphylococcus aureus", "settings": "for MIC: raw MIC", "source_text": "as §1, §2"}, "[4]": {"settings": "same test as μM value, mean ± SD"}, "[5]": {"settings": "first block, test a, repetition 1, read-out: MIC1a"}, "[6]": {"settings": "first block, test a, repetition 2, read-out: MIC2a"}, "[7]": {"settings": "first block, test a, repetition 3, read-out: MIC3a"}, "[8]": {"settings": "first block, test b, repetition 1, read-out: MIC1b"}, "[9]": {"settings": "first block, test b, repetition 2, read-out: MIC2b"}, "[10]": {"settings": "first block, test b, repetition 3, read-out: MIC3b"}, "[11]": {"settings": "test a, repetition 1, read-out: MIC1a"}, "[12]": {"settings": "test a, repetition 2, read-out: MIC2a"}, "[13]": {"settings": "test a, repetition 3, read-out: MIC3a"}, "[14]": {"settings": "test b, repetition 1, read-out: MIC1b"}, "[15]": {"settings": "test b, repetition 2, read-out: MIC2b"}, "[16]": {"settings": "test b, repetition 3, read-out: MIC3b"}}, "note": "Read-outs that look alike come from different tables or passages of the source.", "data": [{"smiles": "CC[C@H](C)[C@H](NC(=O)[C@H](CCCCN)NC(=O)[C@H](CCCCN)NC(=O)[C@H](C)NC(=O)[C@H](CC(C)C)NC(=O)[C@H](C)NC(=O)[C@H](C)NC(=O)[C@H](CC(C)C)NC(=O)[C@H](C)NC(=O)[C@H](CCCCN)NC(=O)[C@H](CC(C)C)NC(=O)[C@H](CC(N)=O)NC(=O)[C@@H](NC(=O)[C@H](CCCCN)NC(=O)CNC(=O)[C@H](CC(C)C)NC(=O)[C@H](CC(C)C)NC(=O)[C@H](Cc1ccc(O)cc1)NC(=O)CNC(=O)[C@H](C)N)[C@@H](C)CC)C(=O)N[C@@H](CC(C)C)C(=O)N[C@@H](Cc1cn(CCOCCOCCOCCOCCC(=O)N[C@@]2(C)C[C@H](O[C@H]3[C@H](Oc4c5cc6cc4Oc4ccc(cc4Cl)[C@@H](O)[C@@H](NC(=O)[C@@H](CC(C)C)NC)C(=O)N[C@@H](CC(N)=O)C(=O)N[C@H]6C(=O)N[C@H]4C(=O)N[C@H](C(=O)N[C@H](C(=O)O)c6cc(O)cc(O)c6-c6cc4ccc6O)[C@H](O)c4ccc(c(Cl)c4)O5)O[C@H](CO)[C@@H](O)[C@@H]3O)O[C@@H](C)[C@H]2O)nn1)C(N)=O", "note": "[conjugate III, TP10-Ala(PEG4-Van)]", "values": [{"measurement": "MIC", "setting": "[1]; microbroth dilution, 96-well, resazurin, 37 °C, 24 h, mean ± SD, at least three independent experiments in triplicates", "result": "25.0 ± 5.1", "unit": "µM"}, {"measurement": "MIC", "setting": "[1]; raw MIC, first block, test a, repetition 1, read-out: MIC1a", "result": 25, "unit": "µM"}, {"measurement": "MIC", "setting": "[1]; raw MIC, first block, test a, repetition 2, read-out: MIC2a", "result": 25, "unit": "µM"}, {"measurement": "MIC", "setting": "[1]; raw MIC, first block, test a, repetition 3, read-out: MIC3a", "result": 25, "unit": "µM"}, {"measurement": "MIC", "setting": "[1]; raw MIC, first block, test b, repetition 1, read-out: MIC1b", "result": 12.5, "unit": "µM"}, {"measurement": "MIC", "setting": "[1]; raw MIC, first block, test b, repetition 2, read-out: MIC2b", "result": 25, "unit": "µM"}, {"measurement": "MIC", "setting": "[1]; raw MIC, first block, test b, repetition 3, read-out: MIC3b", "result": 25, "unit": "µM"}, {"measurement": "MIC", "setting": "[1]; raw MIC, test a, repetition 1, read-out: MIC1a", "result": 100.02, "unit": "µM"}, {"measurement": "MIC", "setting": "[1]; raw MIC, test a, repetition 2, read-out: MIC2a", "result": 100.02, "unit": "µM"}, {"measurement": "MIC", "setting": "[1]; raw MIC, test a, repetition 3, read-out: MIC3a", "result": 100.02, "unit": "µM"}, {"measurement": "MIC", "setting": "[1]; raw MIC, test b, repetition 1, read-out: MIC1b", "result": 50.01, "unit": "µM"}, {"measurement": "MIC", "setting": "[1]; raw MIC, test b, repetition 2, read-out: MIC2b", "result": 100.02, "unit": "µM"}, {"measurement": "MIC", "setting": "[1]; raw MIC, test b, repetition 3, read-out: MIC3b", "result": 100.02, "unit": "µM"}, {"measurement": "MIC in (μg/ml)", "setting": "[1]; [4]", "result": "100.0 ± 20.4", "unit": "µg/mL"}, {"measurement": "MIC", "setting": "[2]; [5]", "result": 12.5, "unit": "µM"}, {"measurement": "MIC", "setting": "[2]; [6]", "result": 6.25, "unit": "µM"}, {"measurement": "MIC", "setting": "[2]; [7]", "result": 12.5, "unit": "µM"}, {"measurement": "MIC", "setting": "[2]; [8]", "result": 6.25, "unit": "µM"}, {"measurement": "MIC", "setting": "[2]; [9]", "result": 12.5, "unit": "µM"}, {"measurement": "MIC", "setting": "[2]; [10]", "result": 12.5, "unit": "µM"}, {"measurement": "MIC", "setting": "[2]; [11]", "result": 50.01, "unit": "µM"}, {"measurement": "MIC", "setting": "[2]; [12]", "result": 25.01, "unit": "µM"}, {"measurement": "MIC", "setting": "[2]; [13]", "result": 50.01, "unit": "µM"}, {"measurement": "MIC", "setting": "[2]; [14]", "result": 25.01, "unit": "µM"}, {"measurement": "MIC", "setting": "[2]; [15]", "result": 50.01, "unit": "µM"}, {"measurement": "MIC", "setting": "[2]; [16]", "result": 50.01, "unit": "µM"}, {"measurement": "MIC in (μg/ml)", "setting": "[2]; [4]", "result": "50.0 ± 12.9", "unit": "µg/mL"}, {"measurement": "MIC", "setting": "S. aureus MRSA 12673; [5]", "result": 0.78, "unit": "µM"}, {"measurement": "MIC", "setting": "S. aureus MRSA 12673; [6]", "result": 1.56, "unit": "µM"}, {"measurement": "MIC", "setting": "S. aureus MRSA 12673; [7]", "result": 0.78, "unit": "µM"}, {"measurement": "MIC", "setting": "S. aureus MRSA 12673; [8]", "result": 0.78, "unit": "µM"}, {"measurement": "MIC", "setting": "S. aureus MRSA 12673; [9]", "result": 1.56, "unit": "µM"}, {"measurement": "MIC", "setting": "S. aureus MRSA 12673; [10]", "result": 0.78, "unit": "µM"}, {"measurement": "MIC", "setting": "S. aureus MRSA 12673; [11]", "result": 3.12, "unit": "µM"}, {"measurement": "MIC", "setting": "S. aureus MRSA 12673; [12]", "result": 6.24, "unit": "µM"}, {"measurement": "MIC", "setting": "S. aureus MRSA 12673; [13]", "result": 3.12, "unit": "µM"}, {"measurement": "MIC", "setting": "S. aureus MRSA 12673; [14]", "result": 3.12, "unit": "µM"}, {"measurement": "MIC", "setting": "S. aureus MRSA 12673; [15]", "result": 6.24, "unit": "µM"}, {"measurement": "MIC", "setting": "S. aureus MRSA 12673; [16]", "result": 3.12, "unit": "µM"}, {"measurement": "MIC in (μg/ml)", "setting": "S. aureus MRSA 12673; [4]", "result": "3.1 ± 1.6", "unit": "µg/mL"}, {"measurement": "MIC", "setting": "[3]; [5]", "result": 1.6, "unit": "µM"}, {"measurement": "MIC", "setting": "[3]; [6]", "result": 0.78, "unit": "µM"}, {"measurement": "MIC", "setting": "[3]; [7]", "result": 0.78, "unit": "µM"}, {"measurement": "MIC", "setting": "[3]; [8]", "result": 1.6, "unit": "µM"}, {"measurement": "MIC", "setting": "[3]; [9]", "result": 1.6, "unit": "µM"}, {"measurement": "MIC", "setting": "[3]; [10]", "result": 1.6, "unit": "µM"}, {"measurement": "MIC", "setting": "[3]; [11]", "result": 6.4, "unit": "µM"}, {"measurement": "MIC", "setting": "[3]; [12]", "result": 3.2, "unit": "µM"}, {"measurement": "MIC", "setting": "[3]; [13]", "result": 3.2, "unit": "µM"}, {"measurement": "MIC", "setting": "[3]; [14]", "result": 6.4, "unit": "µM"}, {"measurement": "MIC", "setting": "[3]; [15]", "result": 6.4, "unit": "µM"}, {"measurement": "MIC", "setting": "[3]; [16]", "result": 6.4, "unit": "µM"}, {"measurement": "MIC in (μg/ml)", "setting": "[3]; [4]", "result": "6.4 ± 1.7", "unit": "µg/mL"}, {"measurement": "MIC", "setting": "S. aureus MRSA N315; [5]", "result": 12.5, "unit": "µM"}, {"measurement": "MIC", "setting": "S. aureus MRSA N315; [6]", "result": 6.25, "unit": "µM"}, {"measurement": "MIC", "setting": "S. aureus MRSA N315; [7]", "result": 12.5, "unit": "µM"}, {"measurement": "MIC", "setting": "S. aureus MRSA N315; [8]", "result": 12.5, "unit": "µM"}, {"measurement": "MIC", "setting": "S. aureus MRSA N315; [9]", "result": 12.5, "unit": "µM"}, {"measurement": "MIC", "setting": "S. aureus MRSA N315; [10]", "result": 6.25, "unit": "µM"}, {"measurement": "MIC", "setting": "S. aureus MRSA N315; [11]", "result": 50.01, "unit": "µM"}, {"measurement": "MIC", "setting": "S. aureus MRSA N315; [12]", "result": 25.01, "unit": "µM"}, {"measurement": "MIC", "setting": "S. aureus MRSA N315; [13]", "result": 50.01, "unit": "µM"}, {"measurement": "MIC", "setting": "S. aureus MRSA N315; [14]", "result": 50.01, "unit": "µM"}, {"measurement": "MIC", "setting": "S. aureus MRSA N315; [15]", "result": 50.01, "unit": "µM"}, {"measurement": "MIC", "setting": "S. aureus MRSA N315; [16]", "result": 25.01, "unit": "µM"}, {"measurement": "MIC in (μg/ml)", "setting": "S. aureus MRSA N315; [4]", "result": "50.0 ± 12.9", "unit": "µg/mL"}]}]}
